Measurements published in paper PMC6684654 (Nature Communications, 2019).
Converted amounts (≈) assume the structure as drawn. Each block holds one molecule with its values, some of them ahead of it.

How the values were obtained:
[1] = system: NDM-1 K. pneumoniae XJ155018; test: Antibiotic susceptibility (MIC), automated identification system; assay type: cell-based; details: Supplementary Table 2; for MIC: Klebsiella pneumoniae
Text: (§1) Clinical isolate strains were identified and screened by the Phoenix 100 automated bacterial identification system to rapidly detect antimicrobial resistance. Total DNA was extracted by the TIANamp Bacteria DNA Kit according to the manufacturer’s protocol. The presence of blaNDM-1 was confirmed using a diagnostic kit for NDM-1 (Puruikang Bio Inc., Shenzhen, China) based on fluorescent quantitative polymerase chain reaction assay. According to the instruction, Ct values of less than 37 were considered positive.

[2] = system: NDM-1 K. pneumoniae XJ155020; test: as above; assay type: cell-based; details: Supplementary Table 2; for MIC: Klebsiella pneumoniae
Text: as §1

[3] = system: NDM-1 K. pneumoniae XJ155017; test: as above; assay type: cell-based; details: Supplementary Table 2; for MIC: Klebsiella pneumoniae
Text: as §1

[4] = system: NDM-1 E. coli XJ141026; test: as above; assay type: cell-based; details: Supplementary Table 1; for MIC: Escherichia coli
Text: as §1

[5] = system: NDM-1 E. coli XJ141015; test: as above; assay type: cell-based; details: Supplementary Table 1; for MIC: Escherichia coli
Text: as §1

[6] = system: NDM-1 E. coli XJ141047; test: as above; assay type: cell-based; details: Supplementary Table 1; for MIC: Escherichia coli
Text: as §1

[7] = system: NDM-1 K. pneumoniae XJ155019; test: as above; assay type: cell-based; details: Supplementary Table 2; for MIC: Klebsiella pneumoniae
Text: as §1

[8] = system: K. pneumoniae ATCC13883; test: as above; assay type: cell-based; details: Supplementary Table 2; for MIC: Klebsiella pneumoniae, ATCC13883
Text: as §1

[9] = system: E. coli ATCC25922; test: as above; assay type: cell-based; details: Supplementary Table 1; for MIC: Escherichia coli, ATCC25922
Text: as §1

[10] = molecular target: NDM-1 (Klebsiella pneumoniae, UniProt C7C422); test: Zn2+ restoration assay; assay type: biochemical
Description: After incubating for 20 min at 30 °C, 50 μL of the mixture was added to the 96-well plate. […] The absorbance at 300 nm was monitored for 30 min at 30 °C. Percent residual activity was calculated from the thanatin-free control.

Sequence of NDM-1 (C7C422 20-270, looked up, natural form): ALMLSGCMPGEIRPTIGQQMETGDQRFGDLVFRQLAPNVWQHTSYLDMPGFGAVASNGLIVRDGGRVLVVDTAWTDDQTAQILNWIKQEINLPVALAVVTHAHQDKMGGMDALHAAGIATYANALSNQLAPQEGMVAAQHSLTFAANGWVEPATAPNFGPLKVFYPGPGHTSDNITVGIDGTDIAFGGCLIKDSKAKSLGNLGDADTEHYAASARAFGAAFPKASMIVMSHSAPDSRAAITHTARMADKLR

Compound: Cc1nnc(SCC2=C(C(=O)O)N3C(=O)[C@@H](NC(=O)Cn4cnnn4)[C@H]3SC2)s1 [Cefazolin]
MIC [1]: > 16 µg/mL
susceptibility class (MIC) [1]: R
MIC [2]: > 16 µg/mL
susceptibility class (MIC) [2]: R
MIC [3]: > 16 µg/mL
susceptibility class (MIC) [3]: R
MIC [4]: > 16 µg/mL
susceptibility class (MIC) [4]: R
MIC [5]: > 16 µg/mL
susceptibility class (MIC) [5]: R
MIC [6]: > 16 µg/mL
susceptibility class (MIC) [6]: R
MIC [7]: > 16 µg/mL
susceptibility class (MIC) [7]: R
MIC [8]: ≤ 4 µg/mL
susceptibility class (MIC) [8]: S
MIC [9]: ≤ 4 µg/mL
susceptibility class (MIC) [9]: S

Compound: CO/N=C(\C(=O)N[C@@H]1C(=O)N2C(C(=O)[O-])=C(C[N+]3(C)CCCC3)CS[C@H]12)c1csc(N)n1 [Cefepime]
MIC [1]: > 16 µg/mL
susceptibility class (MIC) [1]: R
MIC [2]: > 16 µg/mL
susceptibility class (MIC) [2]: R
MIC [3]: > 16 µg/mL
susceptibility class (MIC) [3]: R
MIC [4]: > 16 µg/mL
susceptibility class (MIC) [4]: R
MIC [5]: > 16 µg/mL
susceptibility class (MIC) [5]: R
MIC [6]: > 16 µg/mL
susceptibility class (MIC) [6]: R
MIC [7]: > 16 µg/mL
susceptibility class (MIC) [7]: R
MIC [8]: ≤ 2 µg/mL
susceptibility class (MIC) [8]: S
MIC [9]: ≤ 2 µg/mL
susceptibility class (MIC) [9]: S

Compound: O=C(N[C@H](CO)[C@H](O)c1ccc([N+](=O)[O-])cc1)C(Cl)Cl [Chloramphenicol]
MIC [1]: > 16 µg/mL
susceptibility class (MIC) [1]: R
MIC [2]: > 16 µg/mL
susceptibility class (MIC) [2]: R
MIC [3]: > 16 µg/mL
susceptibility class (MIC) [3]: R
MIC [4]: ≤ 4 µg/mL
susceptibility class (MIC) [4]: S
MIC [5]: > 16 µg/mL
susceptibility class (MIC) [5]: R
MIC [6]: ≤ 4 µg/mL
susceptibility class (MIC) [6]: S
MIC [7]: > 16 µg/mL
susceptibility class (MIC) [7]: R
MIC [8]: ≤ 4 µg/mL
susceptibility class (MIC) [8]: S
MIC [9]: ≤ 4 µg/mL
susceptibility class (MIC) [9]: S

Compound: CN(C)[C@@H]1C(O)=C(C(N)=O)C(=O)[C@@]2(O)C(O)=C3C(=O)c4c(O)cccc4[C@@](C)(O)[C@H]3C[C@@H]12 [Tetracycline]
MIC [1]: > 8 µg/mL
susceptibility class (MIC) [1]: R
MIC [2]: > 8 µg/mL
susceptibility class (MIC) [2]: R
MIC [3]: 4 µg/mL (≈ 9 µM)
susceptibility class (MIC) [3]: S
MIC [4]: > 8 µg/mL
susceptibility class (MIC) [4]: R
MIC [5]: ≤ 2 µg/mL
susceptibility class (MIC) [5]: S
MIC [6]: ≤ 2 µg/mL
susceptibility class (MIC) [6]: S
MIC [7]: > 8 µg/mL
susceptibility class (MIC) [7]: R
MIC [8]: ≤ 2 µg/mL
susceptibility class (MIC) [8]: S
MIC [9]: ≤ 2 µg/mL
susceptibility class (MIC) [9]: S

Compound: O=S(=O)([O-])[O-].[Zn+2] [ZnSO4]
NDM-1 residual activity % ([10]; ZnSO4 0.1 μM, replicate 1): 15.22%
NDM-1 residual activity % ([10]; ZnSO4 0.1 μM, replicate 2): 16.97%
NDM-1 residual activity % ([10]; ZnSO4 0.1 μM, replicate 3): 15.04%
NDM-1 residual activity % ([10]; ZnSO4 1 μM, replicate 1): 27.47%
NDM-1 residual activity % ([10]; ZnSO4 1 μM, replicate 2): 23.22%
NDM-1 residual activity % ([10]; ZnSO4 1 μM, replicate 3): 15.46%
NDM-1 residual activity % ([10]; ZnSO4 5 μM, replicate 1): 28.32%
NDM-1 residual activity % ([10]; ZnSO4 5 μM, replicate 2): 25.17%
NDM-1 residual activity % ([10]; ZnSO4 5 μM, replicate 3): 26.96%
NDM-1 residual activity % ([10]; ZnSO4 10 μM, replicate 1): 32.34%
NDM-1 residual activity % ([10]; ZnSO4 10 μM, replicate 2): 29.63%
NDM-1 residual activity % ([10]; ZnSO4 10 μM, replicate 3): 36.06%
NDM-1 residual activity % ([10]; ZnSO4 50 μM, replicate 1): 43.28%
NDM-1 residual activity % ([10]; ZnSO4 50 μM, replicate 2): 51.47%
NDM-1 residual activity % ([10]; ZnSO4 50 μM, replicate 3): 61.34%
NDM-1 residual activity % ([10]; ZnSO4 100 μM, replicate 1): 56.06%
NDM-1 residual activity % ([10]; ZnSO4 100 μM, replicate 2): 59.92%
NDM-1 residual activity % ([10]; ZnSO4 100 μM, replicate 3): 88.19%
NDM-1 residual activity % ([10]; ZnSO4 200 μM, replicate 1): 61.18%
NDM-1 residual activity % ([10]; ZnSO4 200 μM, replicate 2): 100.32%
NDM-1 residual activity % ([10]; ZnSO4 200 μM, replicate 3): 93.90%
NDM-1 residual activity % ([10]; ZnSO4 400 μM, replicate 1): 95.69%
NDM-1 residual activity % ([10]; ZnSO4 400 μM, replicate 2): 105.75%
NDM-1 residual activity % ([10]; ZnSO4 400 μM, replicate 3): 98.26%
NDM-1 residual activity % ([10]; ZnSO4 800 μM, replicate 1): 94.91%
NDM-1 residual activity % ([10]; ZnSO4 800 μM, replicate 2): 111.23%
NDM-1 residual activity % ([10]; ZnSO4 800 μM, replicate 3): 106.26%

Further lines, results first:

MIC [1]: ≤ 8 µg/mL
susceptibility class (MIC) [1]: S
MIC [2]: ≤ 8 µg/mL
susceptibility class (MIC) [2]: S
MIC [3]: ≤ 8 µg/mL
susceptibility class (MIC) [3]: S
MIC [4]: ≤ 8 µg/mL
susceptibility class (MIC) [4]: S
MIC [5]: ≤ 8 µg/mL
susceptibility class (MIC) [5]: S
MIC [6]: ≤ 8 µg/mL
susceptibility class (MIC) [6]: S
MIC [7]: ≤ 8 µg/mL
susceptibility class (MIC) [7]: S
MIC [8]: ≤ 8 µg/mL
susceptibility class (MIC) [8]: S
MIC [9]: ≤ 8 µg/mL
susceptibility class (MIC) [9]: S
Compound: NCC[C@H](O)C(=O)N[C@@H]1C[C@H](N)[C@@H](O[C@H]2O[C@H](CN)[C@@H](O)[C@H](O)[C@H]2O)[C@H](O)[C@H]1O[C@H]1O[C@H](CO)[C@@H](O)[C@H](N)[C@H]1O [Amikacin]

MIC [1]: > 16 µg/mL
susceptibility class (MIC) [1]: R
MIC [2]: > 16 µg/mL
susceptibility class (MIC) [2]: R
MIC [3]: > 16 µg/mL
susceptibility class (MIC) [3]: R
MIC [4]: > 16 µg/mL
susceptibility class (MIC) [4]: R
MIC [5]: > 16 µg/mL
susceptibility class (MIC) [5]: R
MIC [6]: > 16 µg/mL
susceptibility class (MIC) [6]: R
MIC [7]: > 16 µg/mL
susceptibility class (MIC) [7]: R
MIC [8]: 16 µg/mL (≈ 45.8 µM)
susceptibility class (MIC) [8]: R
MIC [9]: ≤ 4 µg/mL
susceptibility class (MIC) [9]: S
Compound: CC1(C)S[C@@H]2[C@H](NC(=O)[C@H](N)c3ccccc3)C(=O)N2[C@H]1C(=O)O [Ampicillin]

MIC [1]: > 16 µg/mL
susceptibility class (MIC) [1]: R
MIC [2]: > 16 µg/mL
susceptibility class (MIC) [2]: R
MIC [3]: > 16 µg/mL
susceptibility class (MIC) [3]: R
MIC [4]: > 16 µg/mL
susceptibility class (MIC) [4]: R
MIC [5]: > 16 µg/mL
susceptibility class (MIC) [5]: R
MIC [6]: > 16 µg/mL
susceptibility class (MIC) [6]: R
MIC [7]: > 16 µg/mL
susceptibility class (MIC) [7]: R
MIC [8]: ≤ 2 µg/mL
susceptibility class (MIC) [8]: S
MIC [9]: ≤ 2 µg/mL
susceptibility class (MIC) [9]: S
Compound: C[C@H]1[C@H](NC(=O)/C(=N\OC(C)(C)C(=O)O)c2csc(N)n2)C(=O)N1S(=O)(=O)O [Aztreonam]

MIC [1]: ≤ 2 µg/mL
susceptibility class (MIC) [1]: S
MIC [2]: ≤ 2 µg/mL
susceptibility class (MIC) [2]: S
MIC [3]: ≤ 2 µg/mL
susceptibility class (MIC) [3]: S
MIC [4]: > 8 µg/mL
susceptibility class (MIC) [4]: R
MIC [5]: ≤ 2 µg/mL
susceptibility class (MIC) [5]: S
MIC [6]: > 8 µg/mL
susceptibility class (MIC) [6]: R
MIC [7]: ≤ 2 µg/mL
susceptibility class (MIC) [7]: S
MIC [8]: ≤ 2 µg/mL
susceptibility class (MIC) [8]: S
MIC [9]: ≤ 2 µg/mL
susceptibility class (MIC) [9]: S
Compound: CNC(C)C1CCC(N)C(OC2C(N)CC(N)C(OC3OCC(C)(O)C(NC)C3O)C2O)O1 (centres unmarked) [Gentamicin]

MIC [2]: > 8 µg/mL
susceptibility class (MIC) [2]: R
MIC [4]: > 8 µg/mL
susceptibility class (MIC) [4]: R
MIC [5]: > 8 µg/mL
susceptibility class (MIC) [5]: R
MIC [6]: ≤ 1 µg/mL
susceptibility class (MIC) [6]: S
MIC [7]: > 8 µg/mL
susceptibility class (MIC) [7]: R
MIC [8]: ≤ 1 µg/mL
susceptibility class (MIC) [8]: S
MIC [9]: ≤ 1 µg/mL
susceptibility class (MIC) [9]: S
Compound: C[C@H]1COc2c(N3CCN(C)CC3)c(F)cc3c(=O)c(C(=O)O)cn1c23 [Levofloxacin]

MIC [1]: > 4 µg/mL
susceptibility class (MIC) [1]: R
MIC [2]: > 4 µg/mL
susceptibility class (MIC) [2]: R
MIC [3]: > 4 µg/mL
susceptibility class (MIC) [3]: R
MIC [4]: > 4 µg/mL
susceptibility class (MIC) [4]: R
MIC [5]: > 4 µg/mL
susceptibility class (MIC) [5]: R
MIC [6]: ≤ 1 µg/mL
susceptibility class (MIC) [6]: S
MIC [7]: > 4 µg/mL
susceptibility class (MIC) [7]: R
MIC [8]: ≤ 1 µg/mL
susceptibility class (MIC) [8]: S
MIC [9]: ≤ 1 µg/mL
susceptibility class (MIC) [9]: S
Compound: COc1c(N2C[C@@H]3CCCN[C@@H]3C2)c(F)cc2c(=O)c(C(=O)O)cn(C3CC3)c12 [Moxifloxacin]
